Measured values published in US10966957B2, “Method of treating cancer with combinations of histone deacetylase inhibitors (HDAC1) substances” (Research Cancer Institute of America, priority 2011, dated 2021).

Key:
[1] = test system: MBT-2 bladder transitional cell carcinoma, B16-F10 melanoma and LL/2 Lewis lung carcinoma; conditions: depending on concentrations; cited from earlier work
[2] = test system: cancer deemed no longer treatable by conventional methods; conditions: cited from earlier work
[3] = test system: tyrosine kinase; conditions: measured in 11 subjects; cited from earlier work
[4] = test system: acites tumor cells; conditions: injected peritoneally; cited from earlier work
[5] = test system: human squamous cell carcinoma line; conditions: injected interperitoneally; minimal effects on surrounding normal cells; cited from earlier work
[6] = test system: patients with cancer; assay type: in vivo, human; conditions: octreotide subcutaneously at 50-400 mcgs
Source text: As of October 2011, 40 patient charts were selected randomly and reviewed. The inclusion criteria were diagnosis of cancer. No patients were excluded. Patients were aged 27 to 83 years. All were diagnosed by their oncologist/physician and were offered standard conventional treatment of surgery, traditional chemotherapy or radiation.
The patients were managed based on unique developed protocols that were designed in correlation with available research studies and clinical trials that implicate using specific natural and synthetic IV therapies. IV therapies are targeted at epigenetic level and consist of antioxidants, quercetin, DCA, sodium phenyl butyrate, and lipoic acid separately or in combination. All patients received one or more of such treatments. […] Doses of each treatment remained the same or close on each treatment, Quercetin was given intravenously at the dose 0.5 to 1.0 gram (50 mg/ml).
The progression of disease was measures during the course of treatment through tumor markers, Imaging studies and markers for cancer growth, necrosis, LDH, and inflammation, CRP, as well as the Natural killer cell activity or lymphocyte count and Circulatory tumor cells.

[7] = test system: refractory solid tumor malignancies; conditions: cited from earlier work
[8] = test system: prostate cancer cells; conditions: cited from earlier work

Compound: O=C(O)CCCCC1CCSS1 (centres unmarked) [Lipoic acid]
- Reduction of cell number [1]: 10-50%

Compound: O=c1c(O)c(-c2ccc(O)c(O)c2)oc2cc(O)cc(O)c12 [Quercetin]
- Dose recommended for phase 2 studies ([2]; intravenous): ≤ 1400 mg/m2
- Patients with sustained decreases in unique cancer markers ([2]; of 50 patients, metastatic hepatocellular carcinoma and stage 4 metastatic ovarian cancer): two
- Suppression as defined by the radiological criteria of WHO ([2]; up to 1700 mg/m2 intravenous for 3 weeks, 50 patients): None of the patients achieved suppression
- Subjects with a decrease in tyrosine kinase levels [3]: 9
- Increase in lifespan [4]: 20%
- Inhibition of cancer growth [5]: selective inhibition of cancer growth

Compound: Octreotide
- Lowering of IgF-1 by octreotide in the protocols [6]: lowering the IgF-1 significantly

Compound: Sodium phenylbutyrate [SPB]
- Toxicity of oral doses ([7]; oral doses up to 36 grams per day): minimal toxicity
- Patients with stable disease for more than 6 months while on the drug ([7]; oral): 25%
- Potency relative to phenylacetate [8]: more potent than phenylacetate
